One experiment deals with Abutilon theophrasti. Briefly: Post-emergence herbicidal action. It is filed as in vivo. The settings on record: Abutilon theophrasti, 504 h, about 3 weeks after treatment, read-out: Abutilon theophrasti, herbicidal activity rated visually. In short, it runs like this:
(§1)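 Visual ratings of activity, from 0% (like untreated controls) to 100% (plants dead), were made about 3 weeks after treatment. Compounds, formulated as wettable powders or emulsion concentrates with 0.5% additive, were sprayed onto green parts at 1280 g/ha or 320 g/ha in 600 l/ha water. Plants had been sown in sandy loam and were at the one-leaf stage (2 to 3 weeks old).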

Experiment [1] has as its system Alopecurus myosuroides. Briefly: Post-emergence herbicidal action. It is filed as in vivo. The settings on record: 1280 g/ha, about 3 weeks after treatment. The gist of the method:
as §1

The subject of a further experiment is Amaranthus retroflexus. Briefly: Post-emergence herbicidal action. The class given is in vivo. As to conditions: about 3 weeks after treatment. The gist of the method: as §1
Experiment [2] has as its system Echinochloa crus-galli. Briefly: Post-emergence herbicidal action. It is filed as in vivo. The settings on record: 1280 g/ha, about 3 weeks after treatment. In short, it runs like this: as §1
In experiment [3] the test system is Hordeum murinum. Briefly: Post-emergence herbicidal action. It is filed as in vivo. The settings on record: 1280 g/ha, about 3 weeks after treatment. The gist of the method: as §1
Experiment [4] concerns Matricaria inodora. Briefly: Post-emergence herbicidal action. The class given is in vivo. The settings on record: about 3 weeks after treatment. The gist of the method:
as §1

The next experiment deals with Pharbitis purpurea. Briefly: Post-emergence herbicidal action. The class given is in vivo. As to conditions: about 3 weeks after treatment. In short, it runs like this: as §1
For experiment [5], the system named is Polygonum convolvulus. The experiment can be described thus: Post-emergence herbicidal action. It is filed as in vivo. The settings on record: 1280 g/ha, about 3 weeks after treatment. In short, it runs like this:
as §1

The test system of experiment [6] is Setaria viridis. Briefly: Post-emergence herbicidal action. It is filed as in vivo. As to conditions: Setaria viridis, 504 h, about 3 weeks after treatment, read-out: Setaria viridis, herbicidal activity rated visually. The gist of the method:
as §1

Experiment [7] concerns Stellaria media. Briefly: Post-emergence herbicidal action. As to conditions: Stellaria media, 504 h, about 3 weeks after treatment, read-out: Stellaria media, herbicidal activity rated visually. The class given is in vivo. The gist of the method:
as §1

The test system of the next experiment is Veronica persica. The experiment can be described thus: Post-emergence herbicidal action. It is filed as in vivo. As to conditions: 1280 g/ha, about 3 weeks after treatment. In short, it runs like this:
as §1

For experiment [8], the system named is Viola tricolor. Briefly: Post-emergence herbicidal action. The class given is in vivo. The settings on record: 504 h, about 3 weeks after treatment, read-out: Viola tricolor, herbicidal activity rated visually. In short, it runs like this:
as §1

For experiment [9], the system named is Alopecurus myosuroides. The experiment can be described thus: Pre-emergence herbicidal action. As to conditions: after about 3 weeks. The class given is in vivo. The gist of the method: (§2)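 WP or EC formulations were sprayed onto the soil surface over sown seeds as aqueous suspension or emulsion with 0.5% additive at 600 l/ha water, at 1280 or 320 g/ha. Pots were kept in a greenhouse for about 3 weeks. Damage was then scored visually against untreated controls as % activity (100% = dead, 0% = like control).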

The subject of a further experiment is Cyperus esculentus. The experiment can be described thus: Pre-emergence herbicidal action. It is filed as in vivo. As to conditions: 1280 g/ha, after about 3 weeks. The gist of the method:
as §2

Experiment [10] relates to Echinochloa crus-galli. The experiment can be described thus: Pre-emergence herbicidal action. As to conditions: 1280 g/ha, after about 3 weeks. It is filed as in vivo. The gist of the method: as §2
The subject of experiment [11] is Matricaria inodora. The experiment can be described thus: Pre-emergence herbicidal action. It is filed as in vivo. As to conditions: Tripleurospermum inodorum, 504 h, after about 3 weeks, read-out: Matricaria inodora, herbicidal effect scored visually. The gist of the method: as §2
For experiment [12], the system named is Polygonum convolvulus. The experiment can be described thus: Pre-emergence herbicidal action. It is filed as in vivo. The settings on record: after about 3 weeks. The gist of the method: as §2
Experiment [13] has as its system Setaria viridis. Briefly: Pre-emergence herbicidal action. The class given is in vivo. As to conditions: Setaria viridis, 504 h, after about 3 weeks, read-out: Setaria viridis, herbicidal effect scored visually. The gist of the method: as §2
In experiment [14] the test system is Stellaria media. Briefly: Pre-emergence herbicidal action. The class given is in vivo. The settings on record: Stellaria media, 504 h, after about 3 weeks, read-out: Stellaria media, herbicidal effect scored visually. In short, it runs like this: as §2
The subject of experiment [15] is Viola tricolor. The experiment can be described thus: Pre-emergence herbicidal action. It is filed as in vivo. As to conditions: Viola tricolor, 504 h, after about 3 weeks, read-out: Viola tricolor, herbicidal effect scored visually. In short, it runs like this:
as §2

Another experiment addresses T1, photosystem II (PS II) (Spinacia oleracea, UniProt P69560).
T1 construct: the chloroplasts were osmotically ruptured and the thylakoid membranes were then obtained by centrifugation; from tissue; host or cells: fresh spinach leaves; thylakoid membranes isolated from chloroplasts
The experiment can be described thus: Measurement of the PS II activity in thylakoid membranes (DCPIP reduction). The class given is biochemical. The settings on record: 100 μM test compound, spinach thylakoid membranes, DCPIP 120 μM, 10 min at 22° C. with exposure to light; read-out: Effect (inhibition of PS II activity). The gist of the method: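 Thylakoid membranes from spinach leaves in 50 mM phosphate buffer pH 6.8, 10 mM KCl; light-driven reduction of 120 μM DCPIP followed at 595 nm for 10 min at 22 °C. Compounds tested at 100 μM stock in DMSO (2.5% final DMSO), with activity binned by % inhibition classes.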

Experiment [16] concerns Hordeum murinum. Briefly: Pre-emergence herbicidal action. It is filed as in vivo. As to conditions: 320 g/ha, after about 3 weeks. In short, it runs like this:
as §2

For orientation: inhibition means the drop in the measured response relative to a control, in per cent. In the case of `CC1=C(C)C(O)N(c2nc(C(C)C)ns2)C1=O` (stereo not drawn) [I.2-5, 3,4-Dimethyl-5-hydroxy-1-(3-(isopropyl)-1,2,4-thiadiazol-5-yl)-1,5-dihydro-2H-pyrrol-2-one], the pest or weed control at 1280 g/ha with Abutilon theophrasti (1280 g/ha), in the experiment on Setaria viridis [6] (1280 g/ha), in the experiment with Stellaria media [7] (1280 g/ha), with Viola tricolor [8] (1280 g/ha), with Matricaria inodora [11] (1280 g/ha) and with Setaria viridis [13] (1280 g/ha) was 100% throughout. Further, the pest or weed control at 1280 g/ha in the experiment on Stellaria media [14] (1280 g/ha) and with Viola tricolor [15] (1280 g/ha) was 100% in each case. Further, the “Alopecurus myosuroides, herbicidal activity rated visually” value with Alopecurus myosuroides [1] was 80%. In addition, the “Amaranthus retroflexus, herbicidal activity rated visually” value with Amaranthus retroflexus (1280 g/ha) came to 100%. Besides, the “Echinochloa crus-galli, herbicidal activity rated visually” value in the experiment on Echinochloa crus-galli [2] is listed as 90%. In the experiment on Hordeum murinum [3], the “Hordeum murinum, herbicidal activity rated visually” value came to 100%. In addition, the “Matricaria inodora, herbicidal activity rated visually” value in the experiment on Matricaria inodora [4] (1280 g/ha) came out at 100%. In addition, in the experiment on Pharbitis purpurea (1280 g/ha), the “Pharbitis purpurea, herbicidal activity rated visually” value was determined as 100%. Also, the “Polygonum convolvulus, herbicidal activity rated visually” value with Polygonum convolvulus [5] stood at 80%. Also, the “Veronica persica, herbicidal activity rated visually” value in the experiment with Veronica persica is 90%. Also, the “Alopecurus myosuroides, herbicidal effect scored visually” value in the experiment on Alopecurus myosuroides [9] (1280 g/ha) is 80%. Moreover, the “Cyperus esculentus, herbicidal effect scored visually” value with Cyperus esculentus turned out to be 90%. Moreover, the “Echinochloa crus-galli, herbicidal effect scored visually” value in the experiment with Echinochloa crus-galli [10] is 80%. Further, the “Polygonum convolvulus, herbicidal effect scored visually” value in the experiment with Polygonum convolvulus [12] (1280 g/ha) is recorded as 100%. Also, the inhibition at 100 µM (stock) at photosystem II (PS II) was more than 90%.

For `CC1=C(C)C(O)N(c2nc(C3CC3)ns2)C1=O` (stereo not drawn) [I.2-11, 3,4-Dimethyl-5-hydroxy-1-(3-cyclopropyl-1,2,4-thiadiazol-5-yl)-1,5-dihydro-2H-pyrrol-2-one], the pest or weed control at 320 g/ha with Abutilon theophrasti (320 g/ha), in the experiment with Setaria viridis [6] (320 g/ha), in the experiment with Stellaria media [7] (320 g/ha), in the experiment on Viola tricolor [8] (320 g/ha), in the experiment with Matricaria inodora [11] (320 g/ha) and in the experiment on Setaria viridis [13] (320 g/ha) was 100% each time. In addition, the pest or weed control at 320 g/ha in the experiment with Stellaria media [14] (320 g/ha) and in the experiment on Viola tricolor [15] (320 g/ha) was 100% in each case. In addition, the “Amaranthus retroflexus, herbicidal activity rated visually” value with Amaranthus retroflexus (320 g/ha) amounted to 100%. For the same molecule, the “Matricaria inodora, herbicidal activity rated visually” value with Matricaria inodora [4] (320 g/ha) turned out to be 100%. Also, the “Pharbitis purpurea, herbicidal activity rated visually” value in the experiment with Pharbitis purpurea (320 g/ha) is recorded as 100%. Besides, the “Alopecurus myosuroides, herbicidal effect scored visually” value in the experiment on Alopecurus myosuroides [9] (320 g/ha) was determined as 90%. In the experiment with Hordeum murinum [16], the “Hordeum murinum, herbicidal effect scored visually” value is 100%. Also, the “Polygonum convolvulus, herbicidal effect scored visually” value with Polygonum convolvulus [12] (320 g/ha) was found to be 100%. The inhibition at 100 µM (stock) at photosystem II (PS II) was more than 90%.
